Measured values from US8304428B2, “Compounds and methods for inhibiting the interaction of BCL proteins with binding partners” (Infinity Discovery, Inc., priority 2005, dated 2012).

These molecules were tested against Bcl-2 (Homo sapiens, UniProt P10415) (assay: Bcl-2 binding affinity analysis (fluorescence polarization binding assay)).
Description: Bcl-2 and Bcl-xL binding can be determined using a variety of known methods. One such assay is a sensitive and quantitative in vitro binding assay using fluorescence polarization (FP) described by Wang, J.-L.; Zhang, Z-J.; Choksi, S.; Sjam. S.; Lu, Z.; Croce, C. M.; Alnemri, E. S.; Komgold, R.; Huang, Z. Cell permeable Bcl-2 binding peptides: a chemical approach to apoptosis induction in tumor cells. Cancer Res. 2000, 60, 1498-1502).
Bcl-2 binding affinity analysis data is presented below for various compounds of the invention.

Sequence of Bcl-2 (P10415 whole entry): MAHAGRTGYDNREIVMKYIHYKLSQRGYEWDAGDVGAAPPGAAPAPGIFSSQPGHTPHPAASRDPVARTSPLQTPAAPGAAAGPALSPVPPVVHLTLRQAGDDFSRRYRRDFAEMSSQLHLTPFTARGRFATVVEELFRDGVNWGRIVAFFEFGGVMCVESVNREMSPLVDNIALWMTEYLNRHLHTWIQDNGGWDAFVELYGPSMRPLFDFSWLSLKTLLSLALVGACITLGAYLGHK

SMILES	Ki
COc1c(CN2CCC[C@H]2C(=O)N[C@H]2C[C@H]3C[C@@H]([C@@H]2C)C3(C)C)cccc1-c1cc(C(=O)N[C@@H](Cc2ccccc2)CN(C)C)cc([N+](=O)[O-])c1 [Compound 13]	> 50000 nM
COc1c(CN2CCC[C@@H]2C(=O)N[C@H]2C[C@H]3C[C@@H]([C@@H]2C)C3(C)C)cccc1-c1cc(C(=O)N[C@@H](Cc2ccccc2)CN(C)C)cc([N+](=O)[O-])c1 [Compound 18]	300 to 50000 nM
C[C@H](O)[C@H]1[C@@H](C(=O)NC2C[C@H]3C[C@@H]([C@@H]2C)C3(C)C)N(Cc2cccc(-c3ccc(C(=O)N(C)C)cc3)c2)C[C@@H]1O (stereo partly drawn) [Compound 24]	> 50000 nM
COc1c(CN2CSC(C)(C)[C@H]2C(=O)N[C@H]2C[C@H]3C[C@@H]([C@@H]2C)C3(C)C)cccc1-c1cc(C(=O)N[C@@H](Cc2ccccc2)CN(C)C)cc(N(C)C)c1 [Compound 34]	< 100 nM
COc1c(CN2C[C@H](N)C[C@H]2C(=O)N[C@H]2C[C@H]3C[C@@H]([C@@H]2C)C3(C)C)cccc1-c1cc(C(=O)N[C@@H](Cc2ccccc2)CN(C)C)cc(N(C)C)c1 [Compound 35]	< 100 nM
COc1c(CN2C[C@@H](N)C[C@H]2C(=O)N[C@H]2C[C@H]3C[C@@H]([C@@H]2C)C3(C)C)cccc1-c1cc(C(=O)N[C@@H](Cc2ccccc2)CN(C)C)cc(N(C)C)c1 [Compound 36]	< 100 nM
COc1c(CN2CCCC[C@H]2C(=O)N[C@H]2C[C@H]3C[C@@H]([C@@H]2C)C3(C)C)cccc1-c1cc(C(=O)N[C@@H](Cc2ccccc2)CN(C)C)cc(N(C)C)c1 [Compound 37]	> 50000 nM
COc1c(CN2CCOC[C@H]2C(=O)N[C@H]2C[C@H]3C[C@@H]([C@@H]2C)C3(C)C)cccc1-c1cc(C(=O)N[C@@H](Cc2ccccc2)CN(C)C)cc(N(C)C)c1 [Compound 38]	300 to 50000 nM

Next, values leading:

Ki	SMILES
< 100 nM	COc1c(CN2C[C@H](O)[C@@H]([C@H](C)O)[C@H]2C(=O)NC2C[C@H]3C[C@@H]([C@@H]2C)C3(C)C)cccc1-c1cc(C(=O)NCCc2ccccc2)cc(N(C)C)c1 (stereo partly drawn) [Compound 1]
< 100 nM	CCN1CCC[C@@H]1CNC(=O)c1cc(-c2cccc(CN3C[C@H](O)[C@@H]([C@H](C)O)[C@H]3C(=O)NC3C[C@H]4C[C@@H]([C@@H]3C)C4(C)C)c2OC)cc(N(C)C)c1 (stereo partly drawn) [Compound 23]
< 100 nM	COc1c(CN2CC[C@H](O)[C@H]2C(=O)N[C@H]2C[C@H]3C[C@@H]([C@@H]2C)C3(C)C)cccc1-c1cc(C(=O)N[C@@H](Cc2ccccc2)CN(C)C)cc(N(C)C)c1 [Compound 26]
< 100 nM	COc1c(CN2CSC[C@H]2C(=O)N[C@H]2C[C@H]3C[C@@H]([C@@H]2C)C3(C)C)cccc1-c1cc(C(=O)N[C@@H](Cc2ccccc2)CN(C)C)cc(N(C)C)c1 [Compound 33]
